Values after ≈ are worked out from the molar mass of the structure shown. Where two headings read alike, the source gives them in different places.
Columns and labels:
[1] = tested on: Aspergillus fumigatus 1008; experiment: MIC determination (NCCLS M38P), Aspergillus fumigatus 1008; assay type: cell-based
[2] = tested on: Candida tropicalis 750; experiment: MIC determination (NCCLS M27A), Candida tropicalis 750; assay type: cell-based
[3] = tested on: Candida glabrata 90030; experiment: MIC determination (NCCLS M27A), Candida glabrata 90030; assay type: cell-based
[4] = tested on: Candida albicans1162; experiment: MIC determination (NCCLS M27A), Candida albicans 1162; assay type: cell-based
[5] = tested on: Candida parapsilosis 22019 (QC); experiment: MIC determination (NCCLS M27A), Candida parapsilosis 22019 (QC); assay type: cell-based
[6] = tested on: Aspergillus fumigatus Si-I; experiment: MIC determination (NCCLS M38P), Aspergillus fumigatus Si-I; assay type: cell-based
[7] = tested on: Histoplasma capsulatum; experiment: microbe, parasite or virus in culture; assay type: cell-based
[8] = tested on: Cryptococcus neoformans M 106; experiment: MIC determination (NCCLS M27A), Cryptococcus neoformans M 106; assay type: cell-based
[9] = tested on: Cryptococcus neoformans I; experiment: MIC determination (NCCLS M27A), Cryptococcus neoformans I; assay type: cell-based
[10] = tested on: Candida albicans Y-01-19; experiment: MIC determination (NCCLS M27A), Candida albicans Y-01-19; assay type: cell-based
[11] = tested on: Paecilomyces variotti 22319 QC); experiment: MIC determination (NCCLS M38P), Paecilomyces variotti 22319 (QC); assay type: cell-based
[12] = tested on: Candida krusei 766.1; experiment: MIC determination (NCCLS M27A), Candida krusei 766.1; assay type: cell-based
[13] = tested on: Candida albicans 1122; experiment: MIC determination (NCCLS M27A), Candida albicans 1122; assay type: cell-based
[14] = tested on: Candida krusei 6258 (QC); experiment: MIC determination (NCCLS M27A), Candida krusei 6258 (QC); assay type: cell-based
[15] = target: lanosterol 14α-de-methylase; details: the target enzyme in the fungus, background statement; cited from earlier work
[16] = tested on: isolates of Aspergillus species; details: background statement; cited from earlier work
[17] = RPMI 1640, MOPS pH 7, read-out: MIC
[18] = Nakaseomyces glabratus, RPMI 1640, MOPS pH 7, read-out: MIC
[19] = Pichia kudriavzevii, RPMI 1640, MOPS pH 7, read-out: MIC
[20] = Aspergillus fumigatus 1008, RPMI 1640, MOPS pH 7
[21] = Candida albicans1162, RPMI 1640, MOPS pH 7
[22] = Aspergillus fumigatus Si-I, RPMI 1640, MOPS pH 7
[23] = Cryptococcus neoformans M 106, RPMI 1640, MOPS pH 7
[24] = Candida albicans Y-01-19, RPMI 1640, MOPS pH 7
[25] = Candida krusei 766.1, RPMI 1640, MOPS pH 7

Row | Compound | MIC [2, 17] | MIC [3, 18] | MIC [5, 17] | MIC ([7]; pH 7) | MIC [9, 17] | MIC [11, 17] | MIC [13, 17] | MIC [14, 19] | MIC [1, 20] | MIC ([2]; RPMI 1640, MOPS pH 7) | MIC ([3]; RPMI 1640, MOPS pH 7) | MIC ([5]; RPMI 1640, MOPS pH 7) | MIC [6, 22] | MIC ([7]; RPMI 1640, MOPS pH 7) | MIC [8, 23] | MIC ([9]; RPMI 1640, MOPS pH 7) | MIC [10, 24] | MIC ([11]; RPMI 1640, MOPS pH 7) | MIC [12, 25] | MIC ([14]; RPMI 1640, MOPS pH 7) | also measured
1 | CCC(C)n1ncn(-c2ccc(N3CCN(c4ccc(OCC5COC(Cn6cncn6)(c6ccc(Cl)cc6Cl)O5)cc4)CC3)cc2)c1=O (stereo not shown) [Itraconazole] | 0.03 µg/mL (≈ 0.0425 µM) | 2 µg/mL (≈ 2.83 µM) | 0.06 µg/mL (≈ 0.085 µM) | 0.25 µg/mL (≈ 0.354 µM) | 0.016 µg/mL (≈ 0.0227 µM) | 0.03 µg/mL (≈ 0.0425 µM) | 0.03 µg/mL (≈ 0.0425 µM) | 0.5 µg/mL (≈ 0.709 µM) | – | – | – | – | – | – | – | – | – | – | – | – | MIC ([1]; Aspergillus fumigatus 1008, RPMI 1640, MOPS pH 7, read-out: MIC): 0.25 µg/mL (≈ 0.354 µM); MIC ([4]; Candida albicans1162, RPMI 1640, MOPS pH 7, read-out: MIC): 32 µg/mL (≈ 45.3 µM); MIC ([6]; Aspergillus fumigatus Si-I, RPMI 1640, MOPS pH 7, read-out: MIC): 0.25 µg/mL (≈ 0.354 µM); MIC ([8]; Cryptococcus neoformans, M106, pH 7): 0.125 µg/mL (≈ 0.177 µM); MIC ([10]; Candida albicans, Y0119, pH 7): 0.125 µg/mL (≈ 0.177 µM); MIC ([12]; Pichia kudriavzevii, Candida krusei 766.1, RPMI 1640, MOPS pH 7, read-out: MIC): 0.25 µg/mL (≈ 0.354 µM)
2 | C[C@@H]1[C@H](O)[C@@H](C)/C=C/C=C/C=C/C=C/C=C/C=C/C=C/[C@H](O[C@@H]2O[C@H](C)[C@@H](O)[C@H](N)[C@@H]2O)C[C@@H]2O[C@](O)(C[C@@H](O)C[C@@H](O)[C@H](O)CC[C@@H](O)C[C@@H](O)CC(=O)O[C@H]1C)C[C@H](O)[C@H]2C(=O)O [Amphotericin B] | – | – | – | – | – | – | – | – | 0.125 µg/mL (≈ 0.135 µM) | 0.125 µg/mL (≈ 0.135 µM) | 0.125 µg/mL (≈ 0.135 µM) | 0.25 µg/mL (≈ 0.271 µM) | 0.125 µg/mL (≈ 0.135 µM) | 0.25 µg/mL (≈ 0.271 µM) | 0.125 µg/mL (≈ 0.135 µM) | 0.06 µg/mL (≈ 0.0649 µM) | 0.125 µg/mL (≈ 0.135 µM) | 0.06 µg/mL (≈ 0.0649 µM) | 0.25 µg/mL (≈ 0.271 µM) | 0.25 µg/mL (≈ 0.271 µM) | MIC [4, 21]: 0.06 µg/mL (≈ 0.0649 µM); MIC ([13]; RPMI 1640, MOPS pH 7): 0.125 µg/mL (≈ 0.135 µM)
3 | OC(Cn1cncn1)(Cn1cncn1)c1ccc(F)cc1F [Fluconazole] | 0.25 µg/mL (≈ 0.816 µM) | 64 µg/mL (≈ 209 µM) | 2 µg/mL (≈ 6.53 µM) | 2 µg/mL (≈ 6.53 µM) | 0.5 µg/mL (≈ 1.63 µM) | 2 µg/mL (≈ 6.53 µM) | 0.5 µg/mL (≈ 1.63 µM) | 32 µg/mL (≈ 104 µM) | – | – | – | – | – | – | – | – | – | – | – | – | IC50 [15]: 4.8 µM; MIC ([1]; Aspergillus fumigatus, 1008, pH 7): > 128 µg/mL; MIC ([4]; Candida, ALBICANS1162, pH 7): > 128 µg/mL; MIC ([6]; Aspergillus fumigatus, pH 7): > 128 µg/mL; minimum inhibitory concentration (MIC) values [16]: 400 µg/mL (≈ 1310 µM); MIC ([8]; M106, Cryptococcus neoformans M 106, RPMI 1640, MOPS pH 7, read-out: MIC): 2 µg/mL (≈ 6.53 µM); MIC ([10]; Y0119, Candida albicans Y-01-19, RPMI 1640, MOPS pH 7, read-out: MIC): 8 µg/mL (≈ 26.1 µM); MIC ([12]; Pichia kudriavzevii, 766.1, pH 7): 128 µg/mL (≈ 418 µM)
4 | C[C@@H](n1ncn(-c2ccc(OCc3ccc(Cl)cc3Cl)cc2)c1=S)[C@](O)(Cn1cncn1)c1ccc(F)cc1F [compound 1, 2-[(1R,2R)-2 (2,4-Difluorophenyl)-2-hydroxy-1-methyl-3-(1H-1,2,4-triazol-1-yl)propyl]-4-[4-(2,4-dichlorobenzyloxy)phenyl]-3-(2H, 4H)-1,2,4-thiotriazolone] | – | – | – | – | – | – | – | – | <0.125 µg/mL | <0.125 µg/mL | 32 µg/mL (≈ 53 µM) | <0.125 µg/mL | <0.125 µg/mL | 0.5 µg/mL (≈ 0.829 µM) | <0.03 µg/mL | <0.03 µg/mL | ≦0.125 μg/ml | <0.125 µg/mL | 0.5 µg/mL (≈ 0.829 µM) | <0.125 µg/mL | MIC [4, 21]: ≧64 μg/ml; MIC ([13]; RPMI 1640, MOPS pH 7): <0.125 µg/mL
5 | C[C@@H](n1ncn(-c2ccc(OCc3ccccc3)cc2)c1=S)[C@](O)(Cn1cncn1)c1ccc(F)cc1F [Compound No. 2, 2-[(1R,2R)-2 (2,4-Difluorophenyl)-2-hydroxy-1-methyl-3-(1H-1,2,4-triazol-1-yl)propyl]-4-(4-benzyloxyphenyl)-3-(2H, 4H)-1,2,4-thiotriazolone] | – | – | – | – | – | – | – | – | 0.125 µg/mL (≈ 0.234 µM) | 0.002 µg/mL (≈ 0.00374 µM) | 0.125 µg/mL (≈ 0.234 µM) | 0.002 µg/mL (≈ 0.00374 µM) | 0.016 µg/mL (≈ 0.0299 µM) | 0.03 µg/mL (≈ 0.0561 µM) | 0.00025 µg/mL (≈ 0.000468 µM) | 0.00025 µg/mL (≈ 0.000468 µM) | 0.03 µg/mL (≈ 0.0561 µM) | 0.06 µg/mL (≈ 0.112 µM) | 0.125 µg/mL (≈ 0.234 µM) | 0.125 µg/mL (≈ 0.234 µM) | –

Source: patent publication US20040242896A1, “Azole compounds as anti-fungal agents” (priority 2001, published 2004)
